Patent publication US20120283228A1, “2alpha-Methyl and 2beta-Methyl Analogs of 19,26-Dinor-1alpha,25-Dihydroxyvitamin D3 and Their Uses” (WISCONSIN ALUMNI RESEARCH FOUNDATION, priority 2011, published 2012)
Entries after “also recorded” stand apart in the source; their conditions may differ.

Columns and labels:
[1] = test system: Human promyelocytic leukemia (HL60) cells; assay: HL-60 differentiation (nitro blue tetrazolium reduction); type: cell-based
Experimental: Serial dilutions were prepared so that a range of drug concentrations could be tested without changing the final concentration of ethanol (≦0.2%) present in the cell cultures.
Human promyelocytic leukemia (HL60) cells were grown in RPMI-1640 medium containing 10% fetal bovine serus. The cells were incubated at 37° C. in the presence of 5% CO2.
HL60 cells were plated at 1.2×10^5 cells/ml. Eighteen hours after plating, cells in duplicate were treated with drug. Four days later, the cells were harvested and a nitro blue tetrazolium reduction assay was performed (Collins et al., 1979; J. Ex. Med. 149:969-974). The percentage of differentiated cells was determined by counting a total of 200 cells and recording the number that contained intracellular black-blue formazan deposits Verification of differentiation to monocytic cells was determined by measuring phagocytic activity (data not shown).

[2] = test system: 24-hydroxylase (24Ohase) gene promoter; assay: In vitro transcription assay in ROS 17/2.8 (bone) cells, luciferase reporter; type: cell-based; settings: more than 1,25(OH)2D3
Experimental: Transcription activity was measured in ROS 17/2.8 (bone) cells that were stably transfected with a 24-hydroxylase (24Ohase) gene promoter upstream of a luciferase reporter gene (Arbour et al., 1998). Cells were given a range of doses. Sixteen hours after dosing the cells were harvested and luciferase activities were measured using a luminometer.
RLU=relative luciferase units.

vitamin D-deficient rats [3] = assay: Bone calcium mobilization (serum calcium); type: in vivo, Sprague-Dawley rats; settings: rats on low calcium diet (0.02%)
Experimental: (§1) Male, weanling Sprague-Dawley rats were placed on Diet 11 (0.47% Ca) diet +AEK for one week followed by Diet 11 (0.02% Ca) +AEK for 3 weeks. The rats were then switched to a diet containing 0.47% Ca for one week followed by two, weeks on a diet containing 0.02% Ca. Dose administration began during the last week on 0.02% calcium diet. Four consecutive ip doses were given approximately 24 hours apart. Twenty-four hours after the last dose, blood was collected from the severed neck and the concentration of serum calcium determined as a measure of bone calcium mobilization. The first 10 cm of the intestine was also collected for intestinal calcium transport analysis using the everted gut sac method.

vitamin D-deficient rats [4] = assay: Intestinal calcium transport (everted gut sac method); type: in vivo, Sprague-Dawley rats
Experimental: as §1

[5] = target: T1, full-length recombinant rat vitamin D receptor (Rattus norvegicus, UniProt P13053)
T1 sequence (P13053 1-423): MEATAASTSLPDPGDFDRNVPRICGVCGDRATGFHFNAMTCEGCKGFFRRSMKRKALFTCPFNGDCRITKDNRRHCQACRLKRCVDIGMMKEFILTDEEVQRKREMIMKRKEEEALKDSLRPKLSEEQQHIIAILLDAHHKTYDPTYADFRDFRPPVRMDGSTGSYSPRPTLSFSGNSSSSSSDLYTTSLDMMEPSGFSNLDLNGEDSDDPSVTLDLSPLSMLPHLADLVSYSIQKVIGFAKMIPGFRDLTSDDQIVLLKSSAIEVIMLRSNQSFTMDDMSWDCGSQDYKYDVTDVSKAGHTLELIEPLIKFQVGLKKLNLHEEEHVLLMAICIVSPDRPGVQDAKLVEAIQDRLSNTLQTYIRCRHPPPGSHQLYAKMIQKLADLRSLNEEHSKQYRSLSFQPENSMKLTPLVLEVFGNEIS
Experimental: (§2) Full-length recombinant rat receptor was expressed in E. coli BL21 (DE3) Codon Plus RIL cells and purified to homogeneity using two different column chromatography systems. The first system was a nickel affinity resin that utilizes the C-terminal histidine tag on this protein. The protein that was eluted from this resin was further purified using ion exchange chromatography (S-Sepharose Fast Flow). Aliquots of the purified protein were quick frozen in liquid nitrogen and stored at −80° C. until use. For use in binding assays, the protein was diluted in TEDK50 (50 mM Tris, 1.5 mM EDTA, pH 7.4, 5 mM DTT, 150 mM KCl) with 0.1% Chaps detergent. The receptor protein and ligand concentration was optimized such that no more than 20% of the added radiolabeled ligand as bound to the receptor.
(§3) Radiolabeled and unlabeled ligands were added to 100 mcl of the diluted protein at a final ethanol concentration of ≦10%; mixed and incubated overnight on ice to reach binding equilibrium. The following day, 100 mcl of hydroxylapaptite slurry (50%) was added to each tube and mixed at 10-minute intervals for 30 minutes. The hydroxylapaptite was collected by centrifugation and then washed three times with Tris-EDTA buffer (50 mM Tris, 1.5 mM EDTA, pH 7.4) containing 0.5% Titron X-100. After the final wash, the pellets were transferred to scintillation vials containing 4 ml of Biosafe II scintillation cocktail, mixed and placed in a scintillation counter. Total binding was determined from the tubes containing only radiolabeled ligand.

[6] = target: T1, full-length recombinant rat vitamin D receptor; assay: biochemical; settings: ability to compete with [3H]-1,25(OH)2D3 for binding to the vitamin D receptor, full-length recombinant rat VDR
Experimental: as §2, §3

[7] = rats on low calcium diet (0.02%), 4 ip doses

## CC(O)CCCC(C)C1CCC2C(=CC=C3CC(O)C(C)C(O)C3)CCCC21C (single isomer, unassigned) [LR-2]
[1]; HL-60 cells, read-out: EC50, ability to promote HL-60 cell differentiation
  EC50: 0.1 nM
[1]; more potent than 1,25(OH)2D3
  times more potent than 1,25(OH)2D3 on HL-60 differentiation: 10 times
[2]
  times more transcriptional activity than 1α,25-dihydroxyvitamin D3 in bone cells: 10 times
Vitamin D-deficient rats [3]; 7,020 pmol/day for 4 consecutive days
  mobilization of bone calcium at 7,020 pmol/day: did not result in mobilization of bone calcium
Vitamin D-deficient rats [3]; 21,060 pmol/day for 4 consecutive days
  mobilization of bone calcium at 21,060 pmol/day: without any substantial effect
Vitamin D-deficient rats [3]; all dosages tested
  activity in mobilizing calcium from bone / serum calcium levels: little, if any, activity
Vitamin D-deficient rats [3]; 4 ip doses
  times less potent than 1,25(OH)2D3 in bone (bone calcium mobilization): more than 30 times
Vitamin D-deficient rats [4]; 7,020 pmol/day, compared with 1,25(OH)2D3 at 780 pmol/day
  intestinal calcium transport at 7,020 pmol/day: some intestinal calcium transport activity, but still not to the same extent as 1,25(OH)2D3
Vitamin D-deficient rats [4]; [7]
  logs less potent than 1,25(OH)2D3 in the intestine: approximately one and one
  times less potent than 1,25(OH)2D3 in stimulating calcium transport in the gut: about 10 times
[5]
  binding to the receptor as compared to 1,25(OH)2D3: bound equally well; also recorded: equivalent
[6]
  Ki: 0.08 nM
